# Data published in PMC10656490, “Sequence-based prediction of the intrinsic solubility of peptides containing non-natural amino acids” (Nature Communications, 2023).
# Where a SMILES comes first, the peptide text is derived from it. [ ]: non-standard residue; d: D form. Nle = CCCC[C@H](N)C(=O)O
# Key:
# [1] = Ammonium sulphate (AMS) precipitation relative solubility assay (18 A variants); assay type: physicochemical; settings: 18A variants
# Procedure: Relative solubility was measured using a recently developed PEG precipitation assay. For all PYY variants the standard assay worked well, and no changes had to be implemented (Fig. 2a). […] Moreover, to ensure that the results stemming from the AMS assay are consistent and reliable, we performed the 18 A experiments twice independently on different days. The results confirmed that they are indeed replicable, and we were therefore confident to use them for the validation of our approach (Supplementary Fig. 3). […] Even at final concentrations of 0.33 mg/mL (instead of 1 mg/mL) most variants remained insoluble. We used ultracentrifugation to determine the relative solubilities of the GLP-1 variants (Table 3). To confirm the reliability of this method we replicated the results on a different day with the same stock solutions (Supplementary Fig. 4).
# Aliquots of 1 mg were prepared from the purified and lyophilised stocks. […] Briefly, a precipitant is titrated in increasing concentration to a fixed concentration of protein to induce precipitation of the protein. The samples are incubated for 48 h at 4° after mixing. The samples are centrifuged and the remaining protein concentration is measured in the supernatant using a plate reader. PYY and 18 A variants were dissolved in 10 mM citrate 10 mM phosphate buffer at pH 7 for a final concentration of 3 mg/mL. The assay was run with 50% 6000 PEG for PYY and with 3.8 M AMS for 18 A. To improve throughput, a multichannel robot was employed to measure several peptides at once with the workflow being kept the same as described previously. […] 120 µL of each sample were centrifuged using an OptimaTLX Ultracentrifuge and spinning for 30 min at 500,000 g at 4 °C. The supernatant was removed, and the peptide concentration was measured using a NanoDrop.
# [2] = cited from earlier work
PEG1/2 ([1]; Figure 3b),"Second Run ([1]; precipitation midpoint, second run, Figure S3)",Compound,half-life [2]
2.52,1.409,"CCCC[C@H](NC(=O)[C@H](CCCCN)NC(=O)[C@H](CCC(=O)O)NC(=O)[C@H](C)NC(=O)[C@@H](NC(=O)[C@H](CCCCN)NC(=O)[C@H](CC(=O)O)NC(=O)[C@H](Cc1ccc(O)cc1)NC(=O)[C@H](Cc1ccccc1)NC(=O)[C@H](C)NC(=O)[C@H](CCCCN)NC(=O)[C@H](CCCCNC(C)=O)NC(=O)[C@H](Cc1c[nH]c2ccccc12)NC(=O)[C@H](CC(=O)O)NC(C)=O)C(C)C)C(=O)N[C@@H](CCCCN)C(=O)N[C@@H](CCC(=O)O)C(=O)N[C@@H](C)C(=O)N[C@@H](Cc1ccccc1)C(N)=O [Nac, Nle] (Ac-DWK(Ac)KAFYDKVAEK[Nle]KEAF-NH2)",
,,PYY: gut hormone with a length of 36 amino acids,approximately 10 minutes
